Laboratory results published in publication PMC10609081, “In Vivo Trafficking of the Anticancer Drug Tris(8-Quinolinolato) Gallium (III) (KP46) by Gallium-68/67 PET/SPECT Imaging” (Molecules, 2023).
Like-named read-outs stand apart in the source and are kept apart here.

What was measured:
[1] = parameters: method as in PMID 8687115; conditions: healthy mice, 2 weeks daily oral doses; cited from earlier work
[2] = ICP-MS analysis of 69Ga in tissues after oral bulk dose; assay type: in vivo, mice; conditions: bulk (group D), 4 h
Procedure: Oral [^68/67Ga]KP46: The protocol for oral administration experiments reported here was devised on the basis of pilot experiments described in Supplementary Materials (Figure S12). For short-term (up to 4 h) studies with ^68Ga, awake (nonanaesthetised, to avoid suppressive effects of anaesthesia on digestive tract activity) mice that had been fasted for up to 14 h were given [^68Ga]KP46 (5–13 MBq) (group C, “tracer”, n = 3) or [^68Ga]KP46 and KP46 (5–8.5 MBq) (group D, “bulk”, n = 3) by oral gavage. The dose given orally to group D animals, prepared as described above, was 0.4 μmol in 400 μL, molar activity ca. 25 MBq/μmol. […] After separation of layers, a sample of 400 µL from each layer was transferred to fresh Eppendorf tubes and analysed with a gamma counter. Stomach content (72–77 mg), small intestine content (35–88 mg), and large intestine content (86–100 mg) samples from each mouse were analysed similarly by adding them directly to Eppendorf tubes containing a pre-equilibrated mixture of octanol (500 µL) and water (500 µL) before vortexing and centrifuging at 10,000 rpm for 10 min at 4 °C. From each layer, 430 µL was transferred to fresh Eppendorf tubes and analysed with a gamma counter; the solid residues were also counted. […]
expressed as mean ± SD (n = 3). […]

[3] = Distribution/partition coefficients (logD, logP), shake flask with gamma counting; assay type: physicochemical; conditions: octanol/water, tracer level, mean ± SD
Procedure: Tracer-level [^68Ga]KP46 and [^68Ga]Ga-acetate solutions (5–20 µL, 0.3–0.5 MBq) were added to a pre-equilibrated mixture (500 µL/500 µL) of octanol/water (for logP measurement) or octanol/PBS (for logD7.4 measurement). Samples were vortexed for two minutes in a Multi Vortex Mixer V-32 (Grant Bio). From each layer, a sample of 200 µL was taken and its radioactivity measured using a gamma counter.

[4] = parameters: method as in PMID 16938349, PMID 21305117; conditions: bulk drug, spectrophotometric; cited from earlier work
[5] = target: T1, human apo-transferrin (apo-Tf) (Homo sapiens, UniProt P02787); assay: Binding to apo-transferrin by size exclusion chromatography (PD MidiTrap G-25); assay type: in vitro ADME; conditions: incubated with apo-Tf in the presence of bicarbonate, sampled over 48 h
T1 construct: purchased Sigma Aldrich
Procedure: Solutions of human apo-transferrin (apo-Tf, 2 mg/mL) and human serum albumin (HSA, 50 mg/mL) (both purchased from Sigma Aldrich) were dissolved in aqueous NaHCO3 (5 mM, pH = 8) and PBS (pH = 7.4), respectively. An amount of 1 MBq of tracer-level [^68Ga]KP46 (13–20 µL) or [^68Ga]gallium acetate (20–25 µL) was added to 1.2 mL of the apo-Tf solution and to a similar apo-Tf-free NaHCO3 solution (control). Similarly, [^68Ga]KP46 and [^68Ga]gallium acetate solutions were added to 1.5 mL PBS containing HSA or HSA-free PBS (control). The samples were incubated for 60 min at 37 °C (pH = 7–7.5). From each mixture, 0.5 mL was loaded into PD MidiTrap G-25 size exclusion chromatography cartridges that were preconditioned with 8 mL of NaHCO3 (5 mM) (for apo-Tf binding) or PBS (for HSA binding). Fractions (0.5 mL) were collected and counted with a Wallac gamma counter. Protein absorbance at 280 nm was measured using a Nanodrop spectrophotometer. To investigate the speciation of the Ga–KP46 complex in the presence of apo-Tf at later time points (up to 48 h), the experiment was repeated with ^67Ga.

[6] = Octanol extraction of serum, urine and gut contents after oral radiolabelled KP46 (speciation); assay type: in vivo, mice; conditions: oral, tracer level (group E), 24 h
Procedure: Serum and urine from the “tracer level” group (E) were subjected to octanol extraction 24 h postadministration to determine the fraction of ^67Ga that may have survived in the form of [^67Ga]KP46 after absorption from the gut.
Oral [^68/67Ga]KP46: The protocol for oral administration experiments reported here was devised on the basis of pilot experiments described in Supplementary Materials (Figure S12). For short-term (up to 4 h) studies with ^68Ga, awake (nonanaesthetised, to avoid suppressive effects of anaesthesia on digestive tract activity) mice that had been fasted for up to 14 h were given [^68Ga]KP46 (5–13 MBq) (group C, “tracer”, n = 3) or [^68Ga]KP46 and KP46 (5–8.5 MBq) (group D, “bulk”, n = 3) by oral gavage. The dose given orally to group D animals, prepared as described above, was 0.4 μmol in 400 μL, molar activity ca. 25 MBq/μmol. The mice were fasted for three hours before being anaesthetised and PET/CT scanned dynamically for one hour (see below for scanning protocol). After scanning, mice in both groups were culled by neck dislocation while still anaesthetised four hours post-oral administration for organ harvesting and gamma counting. Samples of blood, urine and contents of stomach, small intestine and large intestine (the organs/tissue with measurable activity; tumours were not included as they were insufficiently radioactive) from the mice in group C were used for octanol extraction (shake-flask method) to separate water-soluble (released) and lipid-soluble (intact KP46) ^68Ga. Serum samples were prepared by placing blood samples in a serum separator tube (brand VS367954, Fisher Scientific Ltd., Loughborough, UK) and centrifuging at 3000 rpm for 10 min. Serum (200–300 µL) and urine samples (150–180 µL, taken from the excised bladders) were directly added to Eppendorf tubes containing a pre-equilibrated mixture of octanol (500 µL) and water (500 µL). The tubes were vortexed for two minutes on a Multi Vortex Mixer V-32 (Grant Bio). After separation of layers, a sample of 400 µL from each layer was transferred to fresh Eppendorf tubes and analysed with a gamma counter. Stomach content (72–77 mg), small intestine content (35–88 mg), and large intestine content (86–100 mg) samples from each mouse were analysed similarly by adding them directly to Eppendorf tubes containing a pre-equilibrated mixture of octanol (500 µL) and water (500 µL) before vortexing and centrifuging at 10,000 rpm for 10 min at 4 °C. From each layer, 430 µL was transferred to fresh Eppendorf tubes and analysed with a gamma counter; the solid residues were also counted. Tissues from mice in group D were used after radioactive decay for measurements of nonradioactive ^69Ga content.

[7] = SPECT imaging and ex vivo biodistribution 24 h and 48 h after oral [67Ga]KP46, tracer (group E) and bulk (group F); assay type: in vivo, mice; conditions: n = 4
Procedure: The tracer-level samples for oral administration were prepared in the same manner but with 20 μL of KP46-free DMSO in place of the KP46 solution in DMSO.
All animal experiments were performed in accordance with the Animals (Scientific Procedures) Act, 1986, with protocols approved by the Animal Welfare and Ethical Review Body for King’s College London under project and personal licences approved by the UK Home Office. Tumour xenograft studies were performed on female NSG mice or female athymic nude mice after injecting them subcutaneously in the right shoulder with 2.5 × 10^6 A375 cells in 100 µL of PBS. All in vivo studies were conducted between 14 and 24 days after inoculation, with tumour volumes between 100 mm^3 and 580 mm^3 (see Supplementary Materials, Figure S11).
For long-term (up to 48 h) studies, a similar protocol was followed, but SPECT imaging using ^67Ga was repeated at intervals up to 48 h instead of PET imaging up to only 4 h postadministration. Athymic nude nu/nu mice bearing A375 xenografts were fasted for 7–14 h and divided in two groups: E (n = 4) and F (n = 4). Awake (nonanaesthetised) mice were orally administered with [^67Ga]KP46 (2–11 MBq, “tracer”, group E) or with [^67Ga]KP46 and KP46 (1–11 MBq, “bulk”, group F, given 0.4 μmol KP46 with molar activity ca. 15 MBq/μmol) and fasted for three hours. Mice in both groups were then anaesthetised and SPECT/CT scanned (see scanning protocol below) for one hour. Mice were then allowed to recover and feed. At 24 h postadministration, mice were reanaesthetised and rescanned, then group E mice were culled while still anaesthetised, and tissues were harvested for ex vivo gamma counting.
PET/CT images were acquired with a nanoScan® PET/CT (Mediso Medical Imaging Systems, Budapest, Hungary) scanner operating in list mode using a 400–600 keV energy window and a coincidence window of 1:3. CT scans were acquired for anatomical reference and attenuation correction (55 keV X-ray, exposure time 1000 ms, and 360 projections and pitch 1). PET projection data were reconstructed using the Tera-tomo® software package provided with the scanner —a Monte Carlo-based fully 3D iterative algorithm with four iterations, six subsets, and 0.4 mm isotropic voxel size; corrections for attenuation, scatter, and dead-time were enabled. The data were then visualised and quantified using VivoQuant^© v.2.50 (InviCro, Boston, MA, USA) software. SPECT/CT imaging was performed on a NanoSPECT/CT Silver Upgrade scanner (Mediso; 4 heads, 4 × 9 1.0 mm multipinhole collimators) in helical scanning mode using energy windows centred around 93.20 ± 20% keV (primary), 184.60 ± 20% keV (secondary), and 300.00 ± 20% keV (tertiary). […] Images were coregistered and analysed using VivoQuant v2.50 (InviCro, Needham, MA, USA).

[8] = single oral administration with bulk gallium chloride (100 nmol), after five days; cited from earlier work

T1 sequence (P02787 20-698): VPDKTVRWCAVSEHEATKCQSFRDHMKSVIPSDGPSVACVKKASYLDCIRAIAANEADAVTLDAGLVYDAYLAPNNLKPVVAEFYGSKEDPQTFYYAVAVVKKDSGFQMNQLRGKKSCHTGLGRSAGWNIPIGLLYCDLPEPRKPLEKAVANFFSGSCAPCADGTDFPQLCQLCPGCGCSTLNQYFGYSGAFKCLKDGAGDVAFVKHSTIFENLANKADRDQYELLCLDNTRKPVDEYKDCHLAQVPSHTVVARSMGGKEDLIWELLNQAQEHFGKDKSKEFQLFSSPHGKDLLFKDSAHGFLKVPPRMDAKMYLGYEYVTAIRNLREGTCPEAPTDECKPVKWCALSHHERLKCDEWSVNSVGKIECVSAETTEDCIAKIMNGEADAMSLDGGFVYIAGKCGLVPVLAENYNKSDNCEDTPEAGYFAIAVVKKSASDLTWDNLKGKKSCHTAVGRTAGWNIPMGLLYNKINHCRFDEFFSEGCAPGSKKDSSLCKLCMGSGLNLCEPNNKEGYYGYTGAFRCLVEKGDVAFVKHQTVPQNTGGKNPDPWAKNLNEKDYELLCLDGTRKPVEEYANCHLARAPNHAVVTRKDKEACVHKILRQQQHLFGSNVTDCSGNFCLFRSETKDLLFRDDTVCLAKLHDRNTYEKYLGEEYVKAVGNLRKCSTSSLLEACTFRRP

For `[Ga+3].[O-]c1cccc2cccnc12.[O-]c1cccc2cccnc12.[O-]c1cccc2cccnc12` [KP46, tris(8-quinolinolato)gallium (III)], the “accumulation of gallium in liver” value [1] is given as 0.08 ± 0.04 %ID/g, the “69Ga delivered to tumour by ICP-MS” value [2] is given as 0.17 ± 0.1 %ID/g and the “69Ga in large intestine by ICP-MS” value [2] is given as 23.7 ± 9.2 %ID/g. For the same molecule, the “logP(octanol/water)” value [3] was 2.33 ± 0.28 and the “logP(octanol/water)” value [4] was 0.88.

For `[67Ga+3].[O-]c1cccc2cccnc12.[O-]c1cccc2cccnc12.[O-]c1cccc2cccnc12` [[^67Ga]KP46], the “binding of 67Ga to apo-Tf” value [5] was “very minor binding”, the “serum radioactivity extracted into octanol phase” value [6] was “Less than 6%” and the “urine activity extracted into octanol phase” value [6] was “less than 3%”. For the same molecule, the “uptake in bone, ex vivo” value ([7]; bulk level (group F), 48 h) was 2.55 ± 1.82 %ID/g, the “uptake in liver, ex vivo” value ([7]; bulk level (group F), 48 h) was 1.34 ± 1.01 %ID/g and the “uptake in tumour, ex vivo” value ([7]; bulk level (group F), 48 h) was 1.57 ± 0.48 %ID/g. The “activity in faeces, ex vivo” value ([7]; tracer level (group E), 24 h) was 3.0 ± 2.9 %ID/g.

For `O=C([O-])CC(O)(CC(=O)[O-])C(=O)[O-].[67Ga+3]` [[^67Ga]gallium citrate], the “original measured activity remaining in the mice” value [8] is given as 0.3 ± 0.08%.
